Experimental data: PubChem BioAssay (NCI)
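Step 1: Grow cells in 96-well plates. Step 2: Expose to compound for 48 hours at 5 concentrations. Step 3: Interpolate endpoints linearly; if unreached, use highest concentration. TGI: total growth inhibition.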

Columns and labels:
Experiment in all cases: NCI-60 cell line screen, 48 h
786-0 renal = system: 786-0 renal
A549 NSCLC = system: A549 NSCLC
CCRF-CEM leukemia = system: CCRF-CEM leukemia
COLO 205 colon = system: COLO 205 colon
EKVX NSCLC = system: EKVX NSCLC
HCT-15 colon = system: HCT-15 colon
LOX IMVI melanoma = system: LOX IMVI melanoma
MDA-MB-231 breast = system: MDA-MB-231 breast
MDA-MB-435 = system: MDA-MB-435
OVCAR-5 ovarian = system: OVCAR-5 ovarian
SK-MEL-28 melanoma = system: SK-MEL-28 melanoma

| SMILES | TGI (786-0 renal) | TGI (A549 NSCLC) | TGI (CCRF-CEM leukemia) | TGI (COLO 205 colon) | TGI (EKVX NSCLC) | TGI (HCT-15 colon) | TGI (LOX IMVI melanoma) | TGI (MDA-MB-231 breast) | TGI (MDA-MB-435) | TGI (OVCAR-5 ovarian) | TGI (SK-MEL-28 melanoma) |
| --- | --- | --- | --- | --- | --- | --- | --- | --- | --- | --- | --- |
| O=[N+]([O-])C(=C(Nc1ccccc1)Nc1ccccc1)C(Cl)=C(Cl)Cl | 29.4 µM | 35.2 µM | 28.1 µM | 34.1 µM | 33.1 µM | 32.3 µM | 25.1 µM | 33.3 µM | 28.7 µM | 41.8 µM | 35.7 µM |
| O=C(O)CN1CCNCCN(CC(=O)O)CCN(CC(=O)O)CCNCC1 | > 100 µM | > 100 µM | > 100 µM | > 100 µM | > 100 µM | > 100 µM | > 100 µM | > 100 µM | > 100 µM | > 100 µM | > 100 µM |
| N#CC(C#N)=C1SC(=Nc2ccccc2)C(=Nc2ccccc2)N1c1ccccc1 | 60.8 µM | > 100 µM | 6.35 µM | 30.2 µM | > 100 µM | 6.3 µM | 24.4 µM | 26.6 µM | 35.1 µM | 47.3 µM | > 58 µM |
| C[C@H](CCC(=O)O)[C@H]1CC[C@H]2[C@@H]3C(=O)C[C@@H]4C[C@H](O)CC[C@]4(C)[C@H]3C[C@H](O)[C@]12C | > 100 µM | > 100 µM | > 100 µM | > 100 µM | > 100 µM | > 100 µM | > 100 µM | > 100 µM | > 100 µM | > 100 µM | > 100 µM |
| Cc1cc(/N=C/c2ccc(N(C)C)cc2)n(-c2ccccc2)n1 | > 100 µM | > 100 µM | > 100 µM | > 100 µM | > 100 µM | > 100 µM | > 100 µM | > 100 µM | > 100 µM | > 100 µM | > 100 µM |
| CCOC(=O)c1cccc(N=Nc2nc[nH]c2/C=C/C(=O)OC)c1 | > 100 µM | > 100 µM | > 100 µM | > 100 µM | > 100 µM | > 100 µM | > 100 µM | > 100 µM | > 100 µM | > 100 µM | > 100 µM |
| C/C(=N\N=C1/C(=O)OC(c2ccccc2)=C1C(=O)c1ccccc1)c1ccc([N+](=O)[O-])cc1 | > 100 µM | > 100 µM | 75.1 µM | > 100 µM | > 100 µM | 67.6 µM | > 100 µM | > 100 µM | > 100 µM | > 100 µM | > 100 µM |
| O=[N+]([O-])C(=C(Nc1cccc2cccnc12)Nc1cccc2cccnc12)C(Cl)=C(Cl)Cl | > 100 µM | > 100 µM | > 100 µM | > 100 µM | > 100 µM | > 100 µM | > 100 µM | 29.6 µM | > 100 µM | > 100 µM | > 100 µM |
| COC1=CC(=O)c2c(c(-c3nc(C)cs3)cn2C)C1=O | > 100 µM | 12 µM | 35.1 µM | 37.6 µM | 33.6 µM | 14.7 µM | 22.8 µM | 72.6 µM | 1.4 µM | > 43.9 µM | 16.1 µM |
| O=C1c2cc(-c3ccccc3)cnc2S(=O)(=O)N1c1ccc(Br)cc1 | > 100 µM | 49.3 µM | > 100 µM | > 100 µM | > 100 µM | > 100 µM | > 100 µM | > 100 µM | > 100 µM | > 100 µM | > 100 µM |
| Cc1cccc(C)c1NC(=O)C(Cc1c[nH]c2ccccc12)NC(=O)OCc1ccccc1 (stereo not given) | 53.6 µM | 46.6 µM | 76.9 µM | 27.6 µM | 45.3 µM | > 100 µM | 53.8 µM | 48.2 µM | 48.5 µM | 51.6 µM | 57.1 µM |
| COc1ccc(N2C(=O)CC(=O)N(NC(=O)C(C)Oc3ccccc3C)C2=S)cc1 (stereo not given) | > 100 µM | > 100 µM | > 100 µM | > 100 µM | > 100 µM | > 100 µM | > 100 µM | > 100 µM | > 100 µM | > 100 µM | > 100 µM |
| NCCCN1c2ccccc2Sc2ccc(Cl)cc21 | > 10 µM | > 10 µM | > 10 µM | 3.27 µM | > 10 µM | > 10 µM | 7.31 µM | > 8.72 µM | 4.01 µM | > 9.34 µM | > 10 µM |
| CCOS(C)(=O)=O | > 100 µM | > 100 µM | > 100 µM | > 100 µM | > 100 µM | > 100 µM | > 100 µM | > 100 µM | > 100 µM | > 100 µM | > 100 µM |
| O=C1NC2c3c(I)sc(I)c3C(O)C2O1 (stereo not given) | > 100 µM | > 100 µM | > 100 µM | > 100 µM | > 100 µM | > 100 µM | > 100 µM | > 100 µM | > 100 µM | > 100 µM | > 100 µM |
| O=C(O)[C@H]1CCCN1CP(=O)(O)CN1CCC[C@@H]1C(=O)O | > 100 µM | > 100 µM | > 100 µM | > 100 µM | > 100 µM | > 100 µM | > 100 µM | > 100 µM | > 100 µM | > 100 µM | > 100 µM |
| CC1(C)OC[C@@H](O)[C@H](C#N)CO1 | > 100 µM | > 100 µM | > 100 µM | > 100 µM | > 100 µM | > 100 µM | > 100 µM | > 100 µM | > 100 µM | > 100 µM | > 100 µM |
| O=C(O)CCNc1ncnc2nc[nH]c12 | > 100 µM | > 100 µM | > 100 µM | > 100 µM | > 100 µM | > 100 µM | > 100 µM | > 100 µM | > 100 µM | > 100 µM | > 100 µM |
| Cc1c2cc[n+](C)c(C)c2cc2c1[nH]c1ccccc12 | > 39.5 µM | 68.7 µM | 75.3 µM | 5.54 µM | 42.7 µM | > 100 µM | > 92.2 µM | > 36.3 µM | > 75.2 µM | 82.6 µM | 26.4 µM |
| Clc1ccc(-c2nnc3sc4nc5ccccc5c-4nn23)c(Cl)c1 | > 100 µM | > 100 µM | > 100 µM | > 100 µM | > 100 µM | > 100 µM | > 100 µM | > 100 µM | > 100 µM | > 100 µM | > 100 µM |
| COc1ccc(C2OC(c3ccncc3)=NN2C)cc1F (stereo not given) | > 100 µM | > 100 µM | > 100 µM | > 100 µM | > 100 µM | > 100 µM | > 100 µM | > 100 µM | > 100 µM | > 100 µM | > 100 µM |
| C=CCn1c(=O)c(C(=O)Nc2nc(C34CC5CC(CC(C5)C3)C4)cs2)c(O)c2ccccc21 | > 100 µM | 45.1 µM | > 100 µM | > 100 µM | > 100 µM | > 100 µM | > 100 µM | > 100 µM | > 100 µM | > 100 µM | > 100 µM |
| NS(=O)(=O)c1ccc(NC(=S)/N=C/C2=C(O)c3ccccc3C2=O)cc1 | > 100 µM | > 100 µM | > 100 µM | > 100 µM | > 100 µM | > 100 µM | > 100 µM | > 100 µM | > 100 µM | > 100 µM | > 100 µM |
| COc1cc(O)c2c(c1)C(=O)c1cc3c(c(O)c1C2=O)C(OC1OC(C)C(OC)C(O)C1OC)C(OC)C(C)(O)C3=O (stereo not given) | 45.5 µM | 16.1 µM | 41.6 µM | 13.3 µM | 14.5 µM | 15.8 µM | 12.4 µM | 27.3 µM | 16.1 µM | 33.6 µM | 22.1 µM |
| Cn1c(SCc2ccc(F)cc2)nnc1C12CC3CC(CC(C3)C1)C2 | > 100 µM | > 100 µM | 43.3 µM | 31.6 µM | > 100 µM | > 100 µM | 45.6 µM | 94.5 µM | 61.7 µM | > 100 µM | 86.2 µM |
| O=c1[nH][nH]c(=O)n1CCCCCCn1c(=O)[nH][nH]c1=O | > 100 µM | > 100 µM | > 100 µM | > 100 µM | > 100 µM | > 100 µM | > 100 µM | > 100 µM | > 100 µM | > 100 µM | > 100 µM |
| COC(=O)/C=C\C(C#N)(C#N)N=Cc1ccc(C)cc1 | 3.44 µM | 34.3 µM | 2.1 µM | 4.56 µM | 28.7 µM | 6.87 µM | 5.8 µM | 30.1 µM | 5.01 µM | 37.8 µM | 19.8 µM |
| C=C1C(=O)CC2C1CC(=O)/C(C)=C/CCC(C)(O)C2O (stereo not given) | 7.91 µM | 46.5 µM | 13.8 µM | 7.49 µM | 34.3 µM | 11.5 µM | 11.9 µM | 25.2 µM | 20.4 µM | 27.7 µM | 33.3 µM |
| CC(C)(C)[Si](C)(C)OCC1OC(n2ccc(=O)[nH]c2=O)C(O[Si](C)(C)C(C)(C)C)/C1=C/C#N (stereo not given) | > 100 µM | > 100 µM | > 100 µM | 9.83 µM | > 100 µM | > 100 µM | > 51.2 µM | > 83.5 µM | > 38.7 µM | > 100 µM | > 71.5 µM |
| O=C1NC(N2CCOCC2)=N/C1=C\c1ccco1 | > 100 µM | > 100 µM | > 100 µM | > 100 µM | > 100 µM | > 100 µM | > 100 µM | > 100 µM | > 100 µM | > 100 µM | > 100 µM |
